According to article PMC10714400, “Antimicrobial Peptide–Peptoid Hybrids with and without Membrane Disruption” (ACS Infectious Diseases, 2023):
In brackets after ≈: the same amount, converted by molar mass. Like-named read-outs stand apart in the source and are kept apart here. Where a SMILES comes first, the peptide text is derived from it. [ ]: non-standard residue; d: D form.

How the values were obtained:
[1] = test system: A. baumannii ATCC19606
Procedure, shortened: (§1)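 MTT added (20–30 min, room temperature); MIC read by eye as lowest concentration inhibiting visible growth (yellow). Polymyxin B positive control from 16 μg/mL.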

[2] = test system: E. cloacae
Procedure, shortened: (§2)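 MIC taken visually after MTT staining (20–30 min, RT) as the lowest compound concentration preventing growth, i.e. yellow wells. Inoculum ~5 × 10^5 CFU/well in MH broth, 37 °C static for ca. 18 h; polymyxin B control started at 16 μg/mL.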

[3] = test system: E. coli W3110
Procedure, shortened: as §2

[4] = test system: K. pneumoniae NCTC418
Procedure, shortened: as §1

[5] = test system: K. pneumoniae OXA-48
Procedure, shortened: as §2

[6] = test system: P. aeruginosa PAO1
Procedure, shortened: as §2

[7] = test system: PA14 2P4 (pmrB)
Procedure, shortened: as §2

[8] = test system: PA14 4.13 (phoQ)
Procedure, shortened: as §2

[9] = test system: PA14 4.18 (pmrB)
Procedure, shortened: as §2

[10] = test system: S. aureus COL (MRSA)
Procedure, shortened: as §2

[11] = test system: ZEM-1A (clinical MDR P. aeruginosa isolate)
Procedure, shortened: as §2

[12] = test system: ZEM9A (clinical MDR P. aeruginosa isolate)
Procedure, shortened: as §2

[13] = test system: S. aureus Newman
Procedure, shortened: as §2

[14] = test system: HEK293 cells; assay: Cell viability assay by Alamar blue; conditions: read-out: Toxicity on HEK293 cells; CSV
Procedure, shortened: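 Cells kept at 37 °C in 5% CO2 with 10% FBS plus penicillin/streptomycin, in RPMI-1640 for A549 and high-glucose DMEM for HEK293, then assessed for viability by Alamar blue; values are mean ± SD of three.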

[15] = diluted MH ([…] MH, pH 8.5) per Table 1 footnote b, 16–20 h at 37 °C
[16] = full MH, pH 7.4, 16–20 h at 37 °C

In the case of `CC(C)C[C@H](NC(=O)[C@H](CC(C)C)NC(=O)[C@H](CC(C)C)NC(=O)[C@@H](CCCCN)NC(=O)[C@H](CC(C)C)NC(=O)[C@H](CC(C)C)NC(=O)[C@@H](CCCCN)NC(=O)[C@H](CC(C)C)NC(=O)[C@H](CC(C)C)NC(=O)[C@@H](CCCCN)NC(=O)[C@H](N)CCCCN)C(N)=O` [ln69, kkLLkLLkLLL, reference compound] (H-[dK][dK]LL[dK]LL[dK]LLL-NH2), the “MIC A. baumannii ATCC19606, […] MH at pH 7.4” value ([1]; CSV, […] MH at pH 7.4) is reported as 2 ug/mL, the “MIC A. baumannii ATCC19606, […] MH at pH 8.5” value ([1]; CSV, […] MH at pH 8.5) is reported as 2 ug/mL and the “MIC A. baumannii ATCC19606, full MH at pH 7.4” value ([1]; CSV, full MH at pH 7.4) is reported as 3 ug/mL. For the same compound, the “MIC A. baumannii ATCC19606, full MH at pH 8.5” value ([1]; CSV, full MH at pH 8.5) was 12 ug/mL, the “MIC A. baumannii ATCC19606 […] 7.4” value ([1]; Table S2, […] MH, pH 7.4) was 2 µg/mL (≈ 1.51 µM) and the “MIC A. baumannii ATCC19606 […] 8.5” value ([1]; Table S2, […] MH, pH 8.5) was 2 µg/mL (≈ 1.51 µM). For the same compound, the “MIC A. baumannii ATCC19606 Full MH 7.4” value ([1]; Table S2, full MH, pH 7.4) was 2 to 4 µg/mL, the “MIC A. baumannii ATCC19606 Full MH 8.5” value ([1]; Table S2, full MH, pH 8.5) was 8 to 16 µg/mL and the “MIC A. baumannii ATCC19606 […]” value [1, 15] was 2 µg/mL (≈ 1.51 µM). For the same compound, the “MIC A. baumannii ATCC19606 Full” value [1, 16] was 2 to 4 µg/mL, the “MIC E. cloacae, […] MH at pH 8.5” value ([2]; CSV, […] MH at pH 8.5) was 2 ug/mL and the “MIC E. cloacae, full MH at pH 7.4” value ([2]; CSV, full MH at pH 7.4) was 4 ug/mL. The “MIC E. cloacae” value ([2]; MH pH 7.4, 16–20 h at 37 °C) was 4 µg/mL (≈ 3.03 µM), the “MIC E. cloacae” value ([2]; Table S3, […] MH at pH 8.5) was 2 µg/mL (≈ 1.51 µM) and the “MIC E. coli W3110, […] MH at pH 7.4” value ([3]; CSV, […] MH at pH 7.4) was 2 ug/mL. For the same compound, the “MIC E. coli W3110, […] MH at pH 8.5” value ([3]; CSV, […] MH at pH 8.5) was 2 ug/mL, the “MIC E. coli W3110, full MH at pH 7.4” value ([3]; CSV, full MH at pH 7.4) was 4 ug/mL and the “MIC E. coli W3110 […] 7.4” value ([3]; Table S2, […] MH, pH 7.4) was 2 µg/mL (≈ 1.51 µM). The “MIC E. coli W3110 […] 8.5” value ([3]; Table S2, […] MH, pH 8.5) was 2 µg/mL (≈ 1.51 µM), the “MIC E. coli W3110 Full MH 7.4” value ([3]; Table S2, full MH, pH 7.4) was 4 µg/mL (≈ 3.03 µM) and the “MIC E. coli W3110 Full MH 8.5” value ([3]; Table S2, full MH, pH 8.5) was 16 µg/mL (≈ 12.1 µM). For the same compound, the “MIC K. pneumoniae NCTC418, […] MH at pH 7.4” value ([4]; CSV, […] MH at pH 7.4) was 4 ug/mL, the “MIC K. pneumoniae NCTC418, […] MH at pH 8.5” value ([4]; CSV, […] MH at pH 8.5) was 2 ug/mL and the “MIC K. pneumoniae NCTC418, full MH at pH 7.4” value ([4]; CSV, full MH at pH 7.4) was 8 ug/mL. For the same compound, the “MIC K. pneumoniae NCTC418, full MH at pH 8.5” value ([4]; CSV, full MH at pH 8.5) was 16 ug/mL, the “MIC K. pneumoniae NCTC418 […] 7.4” value ([4]; Table S2, […] MH, pH 7.4) was 4 µg/mL (≈ 3.03 µM) and the “MIC K. pneumoniae NCTC418 […] 8.5” value ([4]; Table S2, […] MH, pH 8.5) was 2 µg/mL (≈ 1.51 µM). The “MIC K. pneumoniae NCTC418 Full MH 7.4” value ([4]; Table S2, full MH, pH 7.4) was 8 µg/mL (≈ 6.05 µM), the “MIC K. pneumoniae NCTC418 Full MH 8.5” value ([4]; Table S2, full MH, pH 8.5) was 16 µg/mL (≈ 12.1 µM) and the “MIC K. pneumoniae NCTC418 […]” value [4, 15] was 4 µg/mL (≈ 3.03 µM). For the same compound, the “MIC K. pneumoniae NCTC418 Full” value [4, 16] was 8 µg/mL (≈ 6.05 µM), the “MIC K. pneumoniae OXA-48, […] MH at pH 8.5” value ([5]; CSV, […] MH at pH 8.5) was 2 ug/mL and the “MIC K. pneumoniae OXA-48, full MH at pH 7.4” value ([5]; CSV, full MH at pH 7.4) was 4 ug/mL. The “MIC K. pneumoniae OXA-48” value ([5]; MH pH 7.4, 16–20 h at 37 °C) was 4 µg/mL (≈ 3.03 µM), the “MIC K. pneumoniae OXA-48” value ([5]; Table S3, […] MH at pH 8.5) was 2 µg/mL (≈ 1.51 µM) and the “MIC P. aeruginosa PAO1, […] MH at pH 7.4” value ([6]; CSV, […] MH at pH 7.4) was 4 ug/mL. For the same compound, the “MIC P. aeruginosa PAO1, […] MH at pH 8.5” value ([6]; CSV, […] MH at pH 8.5) was 2 ug/mL, the “MIC P. aeruginosa PAO1, full MH at pH 7.4” value ([6]; CSV, full MH at pH 7.4) was 8 ug/mL and the “MIC P. aeruginosa PAO1, full MH at pH 8.5” value ([6]; CSV, full MH at pH 8.5) was 8 ug/mL. For the same compound, the “MIC P. aeruginosa PAO1 […] 7.4” value ([6]; Table S2, […] MH, pH 7.4) was 4 µg/mL (≈ 3.03 µM), the “MIC P. aeruginosa PAO1 […] 8.5” value ([6]; Table S2, […] MH, pH 8.5) was 2 µg/mL (≈ 1.51 µM) and the “MIC P. aeruginosa PAO1 Full MH 7.4” value ([6]; Table S2, full MH, pH 7.4) was 8 µg/mL (≈ 6.05 µM). For the same compound, the “MIC P. aeruginosa PAO1 Full MH 8.5” value ([6]; Table S2, full MH, pH 8.5) was 8 µg/mL (≈ 6.05 µM), the “MIC P. aeruginosa PAO1 […]” value [6, 15] was 4 µg/mL (≈ 3.03 µM) and the “MIC P. aeruginosa PAO1 Full” value [6, 16] was 8 µg/mL (≈ 6.05 µM). The “MIC P. aeruginosa PA14 2P4, […] MH at pH 8.5” value ([7]; CSV, […] MH at pH 8.5) was 4 ug/mL, the “MIC P. aeruginosa PA14 2P4, full MH at pH 7.4” value ([7]; CSV, full MH at pH 7.4) was 32 ug/mL and the “MIC PA14 2P4 (pmrB)” value ([7]; MH pH 7.4, 16–20 h at 37 °C) was 32 µg/mL (≈ 24.2 µM). The “MIC P. aeruginosa PA14 2P4” value ([7]; Table S3, […] MH at pH 8.5) was 4 µg/mL (≈ 3.03 µM), the “MIC P. aeruginosa PA14 4.13, […] MH at pH 8.5” value ([8]; CSV, […] MH at pH 8.5) was 3 ug/mL and the “MIC P. aeruginosa PA14 4.13, full MH at pH 7.4” value ([8]; CSV, full MH at pH 7.4) was 4 ug/mL. The “MIC PA14 4.13 (phoQ)” value ([8]; MH pH 7.4, 16–20 h at 37 °C) was 4 µg/mL (≈ 3.03 µM), the “MIC P. aeruginosa PA14 4.13” value ([8]; Table S3, […] MH at pH 8.5) was 2 to 4 µg/mL and the “MIC P. aeruginosa PA14 4.18, […] MH at pH 8.5” value ([9]; CSV, […] MH at pH 8.5) was 4 ug/mL. The “MIC P. aeruginosa PA14 4.18, full MH at pH 7.4” value ([9]; CSV, full MH at pH 7.4) was 16 ug/mL, the “MIC PA14 4.18 (pmrB)” value ([9]; MH pH 7.4, 16–20 h at 37 °C) was 16 µg/mL (≈ 12.1 µM) and the “MIC P. aeruginosa PA14 4.18” value ([9]; Table S3, […] MH at pH 8.5) was 4 µg/mL (≈ 3.03 µM). For the same compound, the “MIC S. aureus COL (MRSA), […] MH at pH 7.4” value ([10]; CSV, […] MH at pH 7.4) was 2 ug/mL, the “MIC S. aureus COL (MRSA), […] MH at pH 8.5” value ([10]; CSV, […] MH at pH 8.5) was 2 ug/mL and the “MIC S. aureus COL (MRSA), full MH at pH 7.4” value ([10]; CSV, full MH at pH 7.4) was 16 ug/mL. The “MIC S. aureus COL (MRSA), full MH at pH 8.5” value ([10]; CSV, full MH at pH 8.5) was 16 ug/mL, the “MIC S. aureus COL (MRSA) […] 7.4” value ([10]; Table S2, […] MH, pH 7.4) was 2 µg/mL (≈ 1.51 µM) and the “MIC S. aureus COL (MRSA) […] 8.5” value ([10]; Table S2, […] MH, pH 8.5) was 2 µg/mL (≈ 1.51 µM). For the same compound, the “MIC S. aureus COL (MRSA) Full MH 7.4” value ([10]; Table S2, full MH, pH 7.4) was 16 µg/mL (≈ 12.1 µM), the “MIC S. aureus COL (MRSA) Full MH 8.5” value ([10]; Table S2, full MH, pH 8.5) was 16 µg/mL (≈ 12.1 µM) and the “MIC S. aureus COL (MRSA) […]” value [10, 15] was 2 µg/mL (≈ 1.51 µM). The “MIC S. aureus COL (MRSA) Full” value [10, 16] was 16 µg/mL (≈ 12.1 µM), the “MIC P. aeruginosa ZEM-1A, […] MH at pH 8.5” value ([11]; CSV, […] MH at pH 8.5) was 2 ug/mL and the “MIC P. aeruginosa ZEM-1A, full MH at pH 7.4” value ([11]; CSV, full MH at pH 7.4) was 2 ug/mL. For the same compound, the “MIC P. aeruginosa ZEM-1A” value ([11]; Table S3, […] MH at pH 8.5) was 2 µg/mL (≈ 1.51 µM), the “MIC P. aeruginosa ZEM9A, […] MH at pH 8.5” value ([12]; CSV, […] MH at pH 8.5) was 2 ug/mL and the “MIC P. aeruginosa ZEM9A, full MH at pH 7.4” value ([12]; CSV, full MH at pH 7.4) was 6 ug/mL. For the same compound, the “MIC ZEM9A” value ([12]; MH pH 7.4, 16–20 h at 37 °C) was 4 to 8 µg/mL, the “MIC P. aeruginosa ZEM9A” value ([12]; Table S3, […] MH at pH 8.5) was 2 µg/mL (≈ 1.51 µM) and the “MIC S. aureus Newman, […] MH at pH 8.5” value ([13]; CSV, […] MH at pH 8.5) was 3 ug/mL. For the same compound, the “MIC S. aureus Newman, full MH at pH 7.4” value ([13]; CSV, full MH at pH 7.4) was 8 ug/mL, the “MIC S. aureus Newman” value ([13]; MH pH 7.4, 16–20 h at 37 °C) was 8 µg/mL (≈ 6.05 µM) and the “MIC S. aureus Newman” value ([13]; Table S3, […] MH at pH 8.5) was 2 to 4 µg/mL. The IC50 [14] was 45 ± 9 µM.
